Reference: patent US20190053492A1, “SUBSTITUTED PYRIDINE COMPOUNDS AS PESTICIDES” (Bayer CropScience Aktiengesellschaft, priority 2016, published 2019)
Like-named read-outs stand apart in the source and are kept apart here.

Key:
Spodoptera frugiperda = Spodoptera frugiperda spray test; format: in vivo; conditions: after 7 days, maize leaf discs
Outline: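 Maize leaf discs were sprayed with compound formulated in acetone/DMF and emulsifier-containing water, dried, then infested with Spodoptera frugiperda caterpillars. Percent kill was scored after 7 days, from 100% (all dead) to 0% (none dead).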

Phaedon cochleariae = Phaedon cochleariae spray test; format: in vivo; conditions: after 7 days, Chinese cabbage leaf discs
Outline: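 Chinese cabbage leaf discs sprayed with compound in acetone/DMF and emulsifier-containing water, then infested with mustard beetle larvae once dry. Efficacy in % scored after 7 days (100% = all larvae killed, 0% = none).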

Lucilia cuprina = Lucilia cuprina test; format: in vivo; conditions: application rate 100 ppm, after 2 days, L1 larvae
Outline: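 Active ingredient dissolved in DMSO and diluted with water to the test concentration. About 20 first-instar sheep blowfly larvae placed on minced horsemeat containing the formulation; percentage of larvae killed scored after 2 days.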

Ctenocephalides felis [1] = test: Ctenocephalides felis in vitro contact test with adult cat fleas; format: in vivo; conditions: application rate 5 μg/cm^2 (500 g/ha), after 48 h
Experimental: Ctenocephalides felis—In Vitro Contact Tests with Adult Cat Fleas
For the coating of the test tubes, 9 mg of active ingredient are first dissolved in 1 ml of acetone p.a. and then diluted to the desired concentration with acetone p.a. 250 μl of the solution are distributed homogeneously on the inner walls and the base of a 25 ml glass tube by turning and rocking on an orbital shaker (rocking rotation at 30 rpm for 2 h). With 900 ppm of active ingredient solution and internal surface area 44.7 cm^2, given homogeneous distribution, an area-based dose of 5 μg/cm^2 is achieved.
After the solvent has evaporated off, the tubes are populated with 5-10 adult cat fleas (Ctenocephalides felis), sealed with a perforated plastic lid and incubated in a horizontal position at room temperature and ambient humidity. After 48 h, efficacy is determined. To this end, the tubes are stood upright and the fleas are knocked to the base of the tube. Fleas which remain motionless at the base or move in an uncoordinated manner are considered to be dead or moribund.
100% efficacy means that all the fleas were dead or moribund. 0% efficacy means that no fleas were harmed.

Musca domestica = Musca domestica test; format: in vivo; conditions: after 2 days, adult houseflies
Experimental: Musca domestica Test Solvent: dimethyl sulphoxide To produce a suitable active ingredient formulation, 10 mg of active ingredient are mixed with 0.5 ml of dimethyl sulphoxide, and the concentrate is diluted with water to the desired concentration. Vessels containing a sponge treated with sugar solution and the active ingredient formulation of the desired concentration are populated with 10 adult houseflies (Musca domestica). After 2 days, the kill in % is determined. 100% means that all of the flies have been killed; 0% means that none of the flies have been killed.

Ctenocephalides felis [2] = test: Ctenocephalides felis oral test; format: in vivo; conditions: application rate 100 ppm in citrated cattle blood, after 2 days, adult cat fleas
Outline: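 About 20 unfed adult cat fleas fed through a parafilm membrane on citrated cattle blood dosed with compound from a DMSO formulation. Percent kill was scored after 2 days.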

[3] = log P by HPLC on reversed-phase column (C 18), EEC Directive 79/831 Annex V.A8; format: physicochemical; conditions: 55° C.; for LOGP_HCOOH: log P (HCOOH); for LOGP_NEUTRAL: log P, neutral range; for chromatographic logP: reversed-phase HPLC column (C 18)
Experimental: Temperature: 55° C. […] Called log P (HCOOH) in the table. […] Called log P (neutral) in the table.

Myzus persicae = Myzus persicae spray test; format: in vivo; conditions: application rate 500 g/ha, after 6 days, Chinese cabbage leaf discs
Experimental: Myzus persicae—Spray Test
Solvent: 78 parts by weight of acetone • • 1.5 parts by weight of dimethylformamide
(§1) Emulsifier: alkylaryl polyglycol ether
(§2) To produce a suitable active ingredient formulation, 1 part by weight of active ingredient is dissolved with the specified parts by weight of solvent and made up with water containing an emulsifier concentration of 1000 ppm until the desired concentration is attained. To produce further test concentrations, the formulation is diluted with emulsifier-containing water.
Discs of Chinese cabbage leaves (Brassica pekinensis) infested by all stages of the green peach aphid (Myzus persicae) are sprayed with an active ingredient formulation of the desired concentration.
After 6 days, the efficacy in % is determined. 100% means that all the aphids have been killed; 0% means that no aphids have been killed.

Meloidogyne incognita = Meloidogyne incognita test; format: in vivo; conditions: application rate 20 ppm, after 14 days, lettuce
Experimental: Meloidogyne incognita Test Solvent: 125.0 parts by weight of acetone To produce a suitable active ingredient formulation, 1 part by weight of active ingredient is mixed with the stated amount of solvent and the concentrate is diluted with water to the desired concentration. Vessels are filled with sand, active ingredient solution, an egg/larvae suspension of the southern root-knot nematode (Meloidogyne incognita) and lettuce seeds. The lettuce seeds germinate and the plants develop. The galls develop on the roots. After 14 days, the nematicidal efficacy in % is determined by the formation of galls. 100% means that no galls were found; 0% means that the number of galls on the treated plants corresponds to the untreated control.

Tetranychus urticae = Tetranychus urticae spray test, OP-resistant; format: in vivo; conditions: application rate 500 g/ha, after 6 days, bean leaf discs
Experimental: Tetranychus urticae—Spray Test, OP-Resistant
Solvent: 78.0 parts by weight of acetone • • 1.5 parts by weight of dimethylformamide
as §1, §2
Discs of bean leaves (Phaseolus vulgaris) infested with all stages of the greenhouse red spider mite (Tetranychus urticae) are sprayed with an active ingredient formulation of the desired concentration.
After 6 days, the efficacy in % is determined. 100% means that all the spider mites have been killed; 0% means that no spider mites have been killed.

Boophilus microplus = Boophilus microplus injection test; format: in vivo; conditions: application rate 20 μg/animal, assessed after 7 days, engorged adult female cattle ticks
Experimental: Boophilus microplus—Injection Test
Solvent: dimethyl sulphoxide
To produce a suitable active ingredient formulation, 10 mg of active ingredient are mixed with 0.5 ml of solvent and the concentrate is diluted to the desired concentration with solvent.
1 μl of the active ingredient solution is injected into the abdomen of 5 engorged adult female cattle ticks (Boophilus microplus). The animals are transferred into dishes and kept in a climate-controlled room.
Efficacy is assessed after 7 days by laying of fertile eggs. Eggs which are not visibly fertile are stored in a climate-controlled cabinet until the larvae hatch after about 42 days. An efficacy of 100% means that none of the ticks has laid any fertile eggs; 0% means that all the eggs are fertile.

[4] = acidic range pH 2.7, 0.1% aqueous formic acid and acetonitrile, reversed-phase column (C 18)
[5] = HPLC on reversed-phase column (C 18)
[6] = acidic range at pH 2.7, 0.1% aqueous formic acid and acetonitrile, HPLC on reversed-phase column (C 18)

Compound	efficacy (caterpillars killed) (Spodoptera frugiperda; application rate 100 g/ha)	efficacy (caterpillars killed) (Spodoptera frugiperda; application rate 500 g/ha)	efficacy (beetle larvae killed) (Phaedon cochleariae; application rate 100 g/ha)	efficacy (beetle larvae killed) (Phaedon cochleariae; application rate 500 g/ha)	efficacy (kill in %) (Lucilia cuprina)	efficacy (fleas dead or moribund) (Ctenocephalides felis [1])	efficacy (kill in %) (Musca domestica; application rate 100 ppm)	efficacy (kill in %) (Ctenocephalides felis [2])	LOGP_HCOOH [3, 4]	LOGP_NEUTRAL [3, 5]	nematicidal efficacy (formation of galls) (Meloidogyne incognita)	LOGP_HCOOH [3, 6]	further results
O=C(NC1CC1)c1cc(-c2ccc(C(F)(F)F)cc2)cc(NC(=O)C2CC2)n1 [Example I-013]	100%	100%	100%	100%	100%	80%	100%	100%	3.37	3.37	–	–	–
N#Cc1ccc(CNC(=O)c2cc(-c3ccc(C(F)(F)F)cc3)cc(N(C(=O)C3CC3)C(=O)C3CC3)n2)cc1F [Example I-028, 6-[Bis(cyclopropylcarbonyl)amino]-N-(4-cyano-3-fluorobenzyl)-4-[4-(trifluoromethyl)phenyl]pyridine-2-carboxamide]	–	–	–	–	–	–	–	–	4.27	4.18	90%	–	pest or weed control at 100 g/ha (Spodoptera frugiperda; Spodoptera frugiperda, foliar, 168 h, application rate 100 g/ha, read-out: efficacy (caterpillars killed)): 83%; pest or weed control at 500 g/ha (Spodoptera frugiperda; Spodoptera frugiperda, foliar, 168 h, application rate 500 g/ha, read-out: efficacy (caterpillars killed)): 100%; pest or weed control at 500 g/ha (Phaedon cochleariae; Phaedon cochleariae, foliar, 168 h, application rate 500 g/ha, read-out: efficacy (beetle larvae killed)): 100%; efficacy (aphids killed) (Myzus persicae): 90%; pest or weed control at 100 ppm (Ctenocephalides felis [2]; Ctenocephalides felis, po, 48 h, read-out: efficacy (kill in %)): 100%; chromatographic logP ([3]; pH 2.7, LC-MS acidic range, pH 2.7, 0.1% formic acid/acetonitrile, read-out: log P (acidic) / log P (HCOOH)): 4.27; chromatographic logP ([3]; pH 7.8, LC-MS neutral range, pH 7.8, ammonium hydrogencarbonate/acetonitrile, read-out: log P (neutral)): 4.18
CC(C)C(=O)Nc1cc(-c2ccc(OC(F)(F)F)cc2)cc(C(=O)NCc2ccc(-c3cnco3)cc2)n1 [Example I-104]	–	–	–	–	100%	–	–	80%	3.99	3.87	90%	–	efficacy (spider mites killed) (Tetranychus urticae): 90%; efficacy (no laying of fertile eggs) (Boophilus microplus): 95%
COC(=O)C1(NC(=O)c2cc(-c3ccc(OC(F)(F)F)cc3)cc(NC(=O)C3CC3)n2)CC1 [Example I-138]	100%	100%	100%	100%	100%	100%	100%	100%	–	–	90%	3.42	–
N#Cc1ccc(CNC(=O)c2cc(-c3ccc([S+]([O-])C(F)(F)F)cc3)cc(NC(=O)C3CC3)n2)cc1 (stereo not shown) [Example I-151]	100%	100%	100%	100%	100%	–	100%	100%	–	3.50	–	3.09	efficacy (no laying of fertile eggs) (Boophilus microplus): 80%
O=C(NC1CSC1)c1cc(-c2ccc(OC(F)(F)F)cc2)cc(NC(=O)C2CC2)n1 [Example I-162]	100%	100%	100%	100%	–	100%	–	100%	–	3.93	90%	3.88	–
COC(=O)C1(NC(=O)c2cc(-c3ccc(OC(F)(F)F)cc3)cc(NC(=O)C3CC3)n2)COC1 [Example I-175]	–	–	–	–	–	–	–	–	–	3.17	–	3.25	efficacy (aphids killed) (Myzus persicae): 90%
N#CC1CCC(NC(=O)c2cc(-c3ccc(OC(F)(F)F)cc3)cc(NC(=O)C3CC3)n2)CC1 (stereo not shown) [Example I-197]	100%	100%	83%	100%	100%	100%	80%	100%	–	3.66	–	3.76	efficacy (kill in %) (Musca domestica; application rate 20 ppm): 100%
O=C(NC1CC1(F)F)c1cc(-c2ccc(OC(F)(F)F)cc2)cc(NC(=O)C2CC2)n1 (stereo not shown) [Example I-216]	100%	100%	100%	100%	80%	100%	–	100%	–	3.74	–	3.85	–
